Laboratory results published in patent US20210330611A1, “THERAPY FOR NEUROLOGICAL DISEASES/DISORDERS” (priority 2020, published 2021).
Structures can show the parent of a compound that is named as a salt.

Legend:
[1] = test system: LPS-induced microglia activation; test: Image-based assay of LPS-induced microglia activation (HTS and dose response); format: cell-based, rat; conditions: for inhibition at 10 µM: 48 h, read-out: LPS % inhibition; for inhibition at 10 µM / LPS % inhibition: primary microglia HTS, LPS stimulation, increased cell size (>800 μm^2) as marker of activation
[2] = test system: fibrin- and LPS-induced microglia activation; test: cells; format: cell-based, rat
[3] = test system: fibrin-induced microglia activation; test: Image-based assay of fibrin-induced microglia activation (HTS and dose response); format: cell-based, rat; conditions: for inhibition at 10 µM / Fibrin % inhibition: primary microglia HTS, fibrin stimulation, increased cell size (>800 μm^2) as marker of activation; for inhibition at 10 µM: read-out: Fibrin % inhibition
primary rat microglia [4] = test: Cell toxicity (dead cells, size <150 μm2) in LPS assay; conditions: primary microglia HTS, LPS stimulation; decreased size (<150 μm^2) as marker of toxicity
primary rat microglia [5] = test: Cell toxicity (dead cells, size <150 μm2) in coated fibrin (cFib) assay; conditions: primary microglia HTS, fibrin stimulation; decreased size (<150 μm^2) as marker of toxicity;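 also: share of dead cells sized under 150 µm2 at 10 µM in fibrin-stimulated microglia HTS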
[6] = quadrant by fibrin and LPS inhibition in HTS of 1907 compounds

Row | Structure (SMILES) | inhibition at 10 µM ([1]; Rattus norvegicus, Microglia) [%] | Quadrant (FIG. 5b) [2, 6] | inhibition at 10 µM ([3]; Rattus norvegicus, Microglia) [%] | LPS % cell toxicity (primary rat microglia [4]) [%] | Fibrin % cell toxicity (primary rat microglia [5]) [%] | LPS % inhibition [1] [%] | Fibrin % inhibition [3] [%] | IC50 ([1]; Rattus norvegicus, Microglia, Table 7, read-out: LPS_IC50) [nM] | Quadrant (FIG. 5b) ([2]; Table 2, screen at 10 μM) | Activity ([2]; Table 7, fib = fibrin, LPS, tox = toxicity) | IC50 ([3]; Rattus norvegicus, Microglia, Table 7, read-out: fib_IC50) [nM]
1 | CCN(CC)C(=O)c1cccnc1 [Nikethamide] | -4 | Q4 | 12 | 0 | 0 |  |  |  |  |  | 
2 | Cc1ncc(CNC(=O)N(CCCl)N=O)c(N)n1 [Nimustine] | 10 | Q4 | -1 | 0 | 1 |  |  |  |  |  | 
3 | O=[N+]([O-])c1ccc([As](=O)(O)O)cc1 [Nitarsone] |  | Q4 |  | 0 | 1 | 19 | −3 |  |  |  | 
4 | CC(=O)Oc1ccccc1C(=O)Nc1ncc([N+](=O)[O-])s1 [Nitazoxanide] | 22 | Q4 | -16 | 0 | 1 |  |  |  |  |  | 
5 | CC(=O)Nc1ncc([N+](=O)[O-])s1 [Nithiamide] | 21 | Q4 | 3 | 1 | 1 |  |  |  |  |  | 
6 | CCOC(=O)C1=C(C)NC(C)=C(C(=O)OC)C1c1cccc([N+](=O)[O-])c1 (stereo not shown) [Nitrendipine] | 18 | Q4 | -12 | 0 | 1 |  |  |  |  |  | 
7 | NC(=O)N/N=C/c1ccc([N+](=O)[O-])o1 [Nitrofural] | 1 | Q4 | -14 | 0 | 0 |  |  |  |  |  | 
8 | O=[N+]([O-])OCC(CO[N+](=O)[O-])O[N+](=O)[O-] [Nitroglycerin] | 17 | Q4 | 2 | 1 | 1 |  |  |  |  |  | 
9 | NC(=O)c1cc([N+](=O)[O-])cc([N+](=O)[O-])c1 [Nitromide] |  | Q4 |  | 0 | 0 | 11 | −7 |  |  |  | 
10 | O=[N+]([O-])c1ccc(O)c2ncccc12 [Nitroxoline] | -6 | Q4 | -5 | 0 | 1 |  |  |  |  |  | 
11 | C#C[C@]1(OC(C)=O)CC[C@H]2[C@@H]3CCC4=CC(=O)CC[C@@H]4[C@H]3CC[C@@]21C [Norethindrone Acetate] | 18 | Q4 | -5 | 0 | 1 |  |  |  |  |  | 
12 | COc1ccc2c(c1OC)C(=O)O[C@@H]2[C@H]1c2c(cc3c(c2OC)OCO3)CCN1C [Noscapine Hydrochloride] | 23 | Q4 | -15 | 0 | 1 |  |  |  |  |  | 
13 | CO[C@@H]1[C@@H](OC(N)=O)[C@@H](O)[C@H](Oc2ccc3c(O)c(NC(=O)c4ccc(O)c(CC=C(C)C)c4)c(=O)oc3c2C)OC1(C)C [Novobiocin] | 8 | Q4 | -17 | 0 | 0 |  |  |  |  |  | 
14 | CC(CCc1ccccc1)NC(C)C(O)c1ccc(O)cc1 (stereo not shown) [Nylidrin hydrochloride, reference compound] | 24 | Q4 | 6 | 1 | 0 |  |  | 7 | Q4 | fib/LPS | 2
15 | CCCCC(CC)COC(=O)c1ccccc1O (stereo not shown) [Octisalate] | 5 | Q4 | -17 | 0 | 0 |  |  |  |  |  | 
16 | CC(C)CCCC(C)N (stereo not shown) [Octodrine] | -2 | Q4 | 2 | 0 | 0 |  |  |  |  |  | 
17 | C[C@@H](O)[C@@H]1NC(=O)[C@H](CCCCN)NC(=O)[C@@H](Cc2c[nH]c3ccccc23)NC(=O)[C@H](Cc2ccccc2)NC(=O)[C@@H](NC(=O)[C@H](N)Cc2ccccc2)CSSC[C@@H](C(=O)N[C@H](CO)[C@@H](C)O)NC1=O [Octreotide] |  | Q4 |  | 1 | 1 | −5 | 3 |  |  |  | 
18 | CC1COc2c(N3CCN(C)CC3)c(F)cc3c(=O)c(C(=O)O)cn1c23 (stereo not shown) [Ofloxacin] | 16 | Q4 | -13 | 0 | 1 |  |  |  |  |  | 
19 | CO[C@H]1C[C@H](O[C@H]2[C@H](C)[C@@H](O[C@@H]3O[C@H](C)C[C@H](N(C)C)[C@H]3O)[C@@H](C)C[C@@]3(CO3)C(=O)[C@H](C)[C@@H](O)[C@@H](C)[C@@H](C)OC(=O)[C@@H]2C)O[C@@H](C)[C@@H]1O [Oleandomycin Phosphate] | 16 | Q4 | -9 | 0 | 1 |  |  |  |  |  | 
20 | CCCCCCCC/C=C\CCCCCCCC(=O)O [Oleic Acid] | 25 | Q4 | 23 | 1 | 1 |  |  |  |  |  | 
21 | CCCc1nc(C(C)(C)O)c(C(=O)OCc2oc(=O)oc2C)n1Cc1ccc(-c2ccccc2-c2nnn[nH]2)cc1 [Olmesartan Medoxomil] | 12 | Q4 | -5 | 0 | 1 |  |  |  |  |  | 
22 | CCCc1nc(C(C)(C)O)c(C(=O)O)n1Cc1ccc(-c2ccccc2-c2nnn[nH]2)cc1 [Olmesartan] | 18 | Q4 | -13 | 0 | 0 |  |  |  |  |  | 
23 | CN(C)CC/C=C1/c2ccccc2COc2ccc(CC(=O)O)cc21 [Olopatadine] | -9 | Q4 | -42 | 0 | 1 |  |  |  |  |  | 
24 | O=C(O)c1cc(/N=N/c2ccc(O)c(C(=O)O)c2)ccc1O [Olsalazine] | 22 | Q4 | -36 | 1 | 1 |  |  |  |  |  | 
25 | C[C@@H]1CN(c2c(F)c(F)c3c(=O)c(C(=O)O)cn(C4CC4)c3c2F)C[C@H](C)N1 [Orbifloxacin] | 15 | Q4 | -18 | 0 | 0 |  |  |  |  |  | 
26 | Cc1ncc([N+](=O)[O-])n1CC(O)CCl (stereo not shown) [Ornidazole] | 12 | Q4 | -22 | 0 | 0 |  |  |  |  |  | 
27 | CCOC(=O)C1=C[C@@H](OC(CC)CC)[C@H](NC(C)=O)[C@@H](N)C1 [Oseltamivir Phosphate] |  | Q4 |  | 0 | 1 | 13 | −7 |  |  |  | 
